Reference: article PMC5963010, “Characterization of a novel thermostable and xylose-tolerant GH 39 β-xylosidase from Dictyoglomus thermophilum” (BMC Biotechnology, 2018)

Target: T1, Xln-DT (Dictyoglomus thermophilum, UniProt B5YB78)
T1 construct: gene DICTH_1792; full-length ORF, 502 aa (1509 bp), in pET-20b (BamHI/XhoI), E. coli BL21(DE3); tag not described
T1 sequence (B5YB78 1-502): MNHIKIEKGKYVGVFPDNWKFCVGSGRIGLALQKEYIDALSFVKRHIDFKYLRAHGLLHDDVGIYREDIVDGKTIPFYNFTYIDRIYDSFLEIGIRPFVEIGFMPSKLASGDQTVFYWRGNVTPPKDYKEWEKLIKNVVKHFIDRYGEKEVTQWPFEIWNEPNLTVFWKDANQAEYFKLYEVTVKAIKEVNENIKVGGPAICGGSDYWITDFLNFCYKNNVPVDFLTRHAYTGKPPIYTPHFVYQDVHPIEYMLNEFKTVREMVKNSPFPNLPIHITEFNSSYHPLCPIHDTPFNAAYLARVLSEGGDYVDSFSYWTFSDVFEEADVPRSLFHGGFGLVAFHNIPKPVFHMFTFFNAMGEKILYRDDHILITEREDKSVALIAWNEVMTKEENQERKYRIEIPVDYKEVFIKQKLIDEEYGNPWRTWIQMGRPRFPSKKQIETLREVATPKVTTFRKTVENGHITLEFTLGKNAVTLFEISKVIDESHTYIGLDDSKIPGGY
Experiment: pNPX hydrolysis assay with added xylose
Format: biochemical

inhibition at 3 M: 40%
SMILES: OC1OC[C@@H](O)[C@H](O)[C@H]1O (stereo partly shown) [xylose]
